Test results from US8008299B2, “Urotensin II receptor antagonists” (Janssen Pharmaceutica, N.V., priority 2007, dated 2011).
Where two headings read alike, the source gives them in different places.

Assays:
[1] = molecular target: T1, UT receptors in HSMM (Human Skeletal Muscle Myoblasts) (Homo sapiens, UniProt Q9UKP6); assay: Human Radioligand Binding Assay ((^125I)-U-II binding to intact HSMM)
T1 sequence (Q9UKP6 1-389): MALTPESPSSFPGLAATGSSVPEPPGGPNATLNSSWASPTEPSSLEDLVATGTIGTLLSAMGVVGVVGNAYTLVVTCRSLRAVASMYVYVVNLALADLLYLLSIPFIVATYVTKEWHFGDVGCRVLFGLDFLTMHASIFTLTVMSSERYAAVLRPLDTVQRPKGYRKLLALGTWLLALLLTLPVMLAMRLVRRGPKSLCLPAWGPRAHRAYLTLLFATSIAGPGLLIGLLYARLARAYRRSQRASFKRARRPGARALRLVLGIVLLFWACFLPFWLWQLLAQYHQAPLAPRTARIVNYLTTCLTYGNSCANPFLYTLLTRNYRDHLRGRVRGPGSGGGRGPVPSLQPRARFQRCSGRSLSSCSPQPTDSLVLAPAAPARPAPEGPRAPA

[2] = molecular target: T2, Human UII (U-II receptor) in 6D9 human rhabdomyosarcoma cells (Homo sapiens, UniProt Q9UKP6); assay: Human UII Calcium Mobilization Assay; format: cell-based
T2 construct: 6D9: isolated by dilution subcloning of RMS13 cells, ATCC® Number: CRL-2061; host or cells: 6D9 human rhabdomyosarcoma cells (subclone of RMS13)
T2 sequence (Q9UKP6 1-389): T1 sequence (Q9UKP6 1-389)
Description: 25 μL of dye solution was added to the wells such that the final liquid volume before agonist/antagonist treatment was 50 μL for all assays. The cell plates were incubated at 37° C. for 45 minutes and the fluorescence intensity was measured on a Fluorometric Imaging Plate Reader (FLIPR^TETRA, Molecular Devices, Sunnyvale, Calif.).
Antagonist and agonist U-II were added at room temperature on the FLIPR^TETRA, and the fluorescence intensity before and after addition was measured over a period of 4 minutes. The dye incubation time and temperature as well as instrument setting was adjusted so the fluorescence intensity could be compared between plates on the same day. EC50 and IC50 were analyzed using GraphPad Prism 4 software (GraphPad Software Inc., San Diego, Calif.).
For assays, U-II agonist, U-II antagonist and urantide were diluted with HBSS/HEPES containing 0.01% FBS.
Test compounds were dissolved in DMSO at 10 mM concentration. The serial dilutions were carried out in HBSS/HEPES. The highest final DMSO concentration was at 0.1%.

[3] = molecular target: T3, rat GPR14 (U-II receptor) (Rattus norvegicus, UniProt P49684); assay: Rat UII Calcium Mobilization FLIPR Assay; format: cell-based; details: CHO cells transfected with rat GPR14; antagonist activity after 5 min incubation vs agonist (Ac)-CFWK(2-NaI)C-NH2 at 1 nM
T3 construct: expressed in transfected cells
T3 sequence (P49684 1-386): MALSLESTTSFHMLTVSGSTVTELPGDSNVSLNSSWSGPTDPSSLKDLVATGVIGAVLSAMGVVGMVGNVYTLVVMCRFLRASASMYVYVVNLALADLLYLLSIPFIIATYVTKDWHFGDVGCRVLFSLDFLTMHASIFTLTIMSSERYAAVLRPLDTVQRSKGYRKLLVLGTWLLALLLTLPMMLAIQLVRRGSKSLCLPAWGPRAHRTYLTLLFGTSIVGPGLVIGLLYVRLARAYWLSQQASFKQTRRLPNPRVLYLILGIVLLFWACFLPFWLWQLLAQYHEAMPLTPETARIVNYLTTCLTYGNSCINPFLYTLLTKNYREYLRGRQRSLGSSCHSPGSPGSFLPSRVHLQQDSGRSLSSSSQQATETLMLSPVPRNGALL
Source text: To derive these cells, the complete coding sequence of rat U-II (Genbank Accession No. U32673) was amplified by nested PCR from rat heart marathon-Ready cDNA. […] The PCR products were cloned into pcDNA3 (Invitrogen) digested with EcoR I and Xba I. Clones containing rat U-II receptor were verified by complete sequencing of the U-II receptor insert to ensure a lack of PCR-introduced errors. The constructed vector was transfected into CHO cells by using lipofectamine (GIBCO BRL). CHO cells with high expression of rat U-II receptor were selected and established as stable cell lines by using G418. CHO cells were seeded at 25,000 cells per well into 96-well, black-wall, clear-bottom microtiter plates 24 h before assay. Cells in culture media (DMEM/F12 containing 15 mM HEPES, L-glutamine, pyridoxine hydrochloride; 10% fetal bovine serum; 1 mg/mL G418 sulfate; antibiotic-antimycotic; pH 7.4) were loaded with proprietary dye, from the FLIPR Calcium Assay Kit (Molecular Devices), prepared in assay buffer (Hanks Balanced Salts Solution, 20 mM HEPES, 0.1% BSA, 2.5 mM probenecid, pH 7.4), and incubated for 1 h at 37° C. Calcium mobilization determinations were performed at room temperature (23° C.).

[4] = 6D9 human rhabdomyosarcoma cells, FLIPR TETRA, average, read-out: Human UII Ca+ Mobilization Average IC50
[5] = read-out: Human UII Average Binding Ki, intact HSMM, 0.150 nM (^125I)-U-II, 3 h, 25° C.

## CCN1CCN(c2cccc3c2CN([C@H](CCCN(C)S(=O)(=O)N(C)C)c2ccc(OC)c(OC)c2)C3=O)CC1 [Cpd 1, dimethylaminosulfonic acid {(4R)-4-(3,4-dimethoxy-phenyl)-4-[4-(4-ethyl-piperazin-1-yl)-1-oxo-1,3-dihydro-isoindol-2-yl]-butyl}-methyl-amide]
[1]
  Ki: 55 nM
[2]; [4]
  IC50: 204 nM
[3]
  IC50: 7 nM

## CCN1CCC(c2cccc3c2CN([C@H](CCCN(C)S(=O)(=O)c2cccs2)c2ccc(OC)c(OC)c2)C3=O)CC1 [Cpd 2, thiophene-2-sulfonic acid {(4R)-4-(3,4-dimethoxy-phenyl)-4-[4-(1-ethyl-piperidin-4-yl)-1-oxo-1,3-dihydro-isoindol-2-yl]-butyl}-methyl-amide]
[1]
  Ki: 50 nM
[2]; [4]
  IC50: 695 nM
[3]
  IC50: 32 nM

## CCN1CCN(c2cccc3c2CN([C@H](CCCN(C)Cc2ccccc2)c2ccc(OC)c(OC)c2)C3=O)CC1 [Cpd 3, 2-[(1R)-4-(benzyl-methyl-amino)-1-(3,4-dimethoxy-phenyl)-butyl]-4-(4-ethyl-piperazin-1-yl)-2,3-dihydro-isoindol-1-one]
[1]
  Ki: 34 nM
[2]; [4]
  IC50: 71 nM
[3]
  IC50: 4 nM

## COc1ccc([C@@H](CCCNc2nccc(C(F)(F)F)n2)N2Cc3c(cccc3N3CCN(C4CC4)CC3)C2=O)cc1OC [Cpd 4, 4-(4-cyclopropyl-piperazin-1-yl)-2-[(1R)-1-(3,4-dimethoxy-phenyl)-4-(4-trifluoromethyl-pyrimidin-2-ylamino)-butyl]-2,3-dihydro-isoindol-1-one]
[1]
  Ki: > 300 nM
[2]; [4]
  IC50: 7010 nM
[3]
  IC50: 1700 nM

## COc1ccc([C@@H](CCCNc2nccc(C(F)(F)F)n2)N2Cc3c(cccc3N3CCN(Cc4ccccc4)CC3)C2=O)cc1OC [Cpd 5, 4-(4-benzyl-piperazin-1-yl)-2-[(1R)-1-(3,4-dimethoxy-phenyl)-4-(4-trifluoromethyl-pyrimidin-2-ylamino)-butyl]-2,3-dihydro-isoindol-1-one]
[1]
  Ki: 45 nM
[2]; [4]
  IC50: 857 nM
[3]
  IC50: 16 nM

## COc1ccc([C@@H](CCCNc2nccc(C(F)(F)F)n2)N2Cc3c(cccc3N3CCNCC3)C2=O)cc1OC [Cpd 6, 2-[(1R)-1-(3,4-dimethoxy-phenyl)-4-(4-trifluoromethyl-pyrimidin-2-ylamino)-butyl]-4-piperazin-1-yl-2,3-dihydro-isoindol-1-one]
[1]
  Ki: 120 nM
[2]; [4]
  IC50: 536 nM
[3]
  IC50: 8 nM

## COc1ccc([C@@H](CCCN(C)S(=O)(=O)c2cccs2)N2Cc3c(cccc3N3CCN(C4CC4)CC3)C2=O)cc1OC [Cpd 7, thiophene-2-sulfonic acid [(4R)-4-[4-(4-cyclopropyl-piperazin-1-yl)-1-oxo-1,3-dihydro-isoindol-2-yl]-4-(3,4-dimethoxy-phenyl)-butyl]-methyl-amide]
[1]; [5]
  Ki: 59 nM
[2]
  IC50: 1170 nM
[3]
  IC50: 13 nM

## COc1ccc([C@@H](CCCN(C)S(=O)(=O)c2cccs2)N2Cc3c(cccc3N3CCN(C(C)C)CC3)C2=O)cc1OC [Cpd 8, thiophene-2-sulfonic acid {(4R)-4-(3,4-dimethoxy-phenyl)-4-[4-(4-isopropyl-piperazin-1-yl)-1-oxo-1,3-dihydro-isoindol-2-yl]-butyl}-methyl-amide]
[1]; [5]
  Ki: 11 nM
[2]; [4]
  IC50: 177 nM
[3]
  IC50: 2 nM

## COc1ccc([C@@H](CCCN(C)S(=O)(=O)c2cccs2)N2Cc3c(cccc3N3CCN(C4CCC4)CC3)C2=O)cc1OC [Cpd 9, thiophene-2-sulfonic acid [(4R)-4-[4-(4-cyclobutyl-piperazin-1-yl)-1-oxo-1,3-dihydro-isoindol-2-yl]-4-(3,4-dimethoxy-phenyl)-butyl]-methyl-amide]
[1]; [5]
  Ki: 44 nM
[2]; [4]
  IC50: 511 nM
[3]
  IC50: 4 nM

## COc1ccc([C@@H](CCCSc2nnnn2C)N2Cc3c(cccc3N3CCNCC3)C2=O)cc1OC [Cpd 24, 2-[(1R)-1-(3,4-dimethoxy-phenyl)-4-(1-methyl-1H-tetrazol-5-ylsulfanyl)-butyl]-4-piperazin-1-yl-2,3-dihydro-isoindol-1-one]
[2]; [4]
  IC50: 1550 nM
[3]
  IC50: 165 nM

## COc1ccc([C@@H](CCCN(C)S(=O)(=O)c2cccs2)N2Cc3c(cccc3N3CCN(C)CC3)C2=O)cc1OC [Cpd 26, thiophene-2-sulfonic acid {(4R)-4-(3,4-dimethoxy-phenyl)-4-[4-(4-methyl-piperazin-1-yl)-1-oxo-1,3-dihydro-isoindol-2-yl]-butyl}-methyl-amide]
[2]; [4]
  IC50: 337 nM
[3]
  IC50: 16 nM

## CCN1CCN(c2cccc3c2CN([C@H](CCCOCc2cccc(F)c2)c2ccc(OC)c(OC)c2)C3=O)CC1 [Cpd 52, 2-[(1R)-1-(3,4-dimethoxy-phenyl)-4-(3-fluoro-benzyloxy)-butyl]-4-(4-ethyl-piperazin-1-yl)-2,3-dihydro-isoindol-1-one]
[2]; [4]
  IC50: > 10000 nM
[3]
  IC50: 3130 nM

## CCN1CCN(c2cccc3c2CN([C@H](CCCOCc2cccc(C)c2)c2ccc(OC)c(OC)c2)C3=O)CC1 [Cpd 55, 2-[(1R)-1-(3,4-dimethoxy-phenyl)-4-(3-methyl-benzyloxy)-butyl]-4-(4-ethyl-piperazin-1-yl)-2,3-dihydro-isoindol-1-one]
[2]; [4]
  IC50: > 10000 nM
[3]
  IC50: 2150 nM

## CCN1CCN(c2cccc3c2CN([C@H](CCCN(C)S(=O)(=O)c2cccs2)c2ccc(OC)c(OC)c2)C3=O)CC1 [Cpd 62, thiophene-2-sulfonic acid {(4R)-4-(3,4-dimethoxy-phenyl)-4-[4-(4-ethyl-piperazin-1-yl)-1-oxo-1,3-dihydro-isoindol-2-yl]-butyl}-methyl-amide]
[2]; [4]
  IC50: 88 nM
[3]
  IC50: 7 nM

## CCN1CCN(c2cccc3c2CN([C@H](CCc2ccc4c(n2)NCCC4)c2ccc(OC)c(OC)c2)C3=O)CC1 [Cpd 86, 2-[(1R)-1-(3,4-dimethoxy-phenyl)-3-(5,6,7,8-tetrahydro-[1,8]naphthyridin-2-yl)-propyl]-4-(4-ethyl-piperazin-1-yl)-2,3-dihydro-isoindol-1-one]
[1]
  Ki: 386 nM
[3]
  IC50: < 1000 nM

## CCN1CCN(c2cccc3c2CN([C@H](CCCc2ccccc2)c2ccc(OC)c(OC)c2)C3=O)CC1 [Cpd 87, 2-[(1R)-1-(3,4-dimethoxy-phenyl)-4-phenyl-butyl]-4-(4-ethyl-piperazin-1-yl)-2,3-dihydro-isoindol-1-one]
[1]
  Ki: 37 nM
[3]
  IC50: 6 nM

## CCN1CCN(c2cccc3c2CN([C@H](CCCN(Cc2ccc(F)cc2)C(C)=O)c2ccc(OC)c(OC)c2)C3=O)CC1 [Cpd 88, N-{(4R)-4-(3,4-dimethoxy-phenyl)-4-[4-(4-ethyl-piperazin-1-yl)-1-oxo-1,3-dihydro-isoindol-2-yl]-butyl}-N-(4-fluoro-benzyl)-acetamide]
[1]
  Ki: 10 nM
[3]
  IC50: 6 nM

## CCN1CCN(c2cccc3c2CN([C@H](CCCNc2ccc4ccccc4n2)c2ccc(OC)c(OC)c2)C3=O)CC1 [Cpd 89, 2-[(1R)-1-(3,4-dimethoxy-phenyl)-4-(quinolin-2-ylamino)-butyl]-4-(4-ethyl-piperazin-1-yl)-2,3-dihydro-isoindol-1-one]
[1]
  Ki: > 300 nM
[3]
  IC50: 260 nM
